{
  "source": "patent US9976122B2",
  "about": "“Methods and compositions for generating an immune response by inducing CD40 and pattern recognition receptor adapters” (BAYLOR COLLEGE OF MEDICINE, priority 2008, dated 2018)",
  "key": {"human SOCS1": {"test_system": "human SOCS1", "experiment": "Real time Q-PCR assay for human SOCS1 in DCs", "assay_type": "cell-based", "settings": "stimulus by itself", "text": "Total RNA was purified and reverse transcribed with random hexamers using SuperScript II RTase (Invitrogen, Carlsbad, Calif.). mRNA levels were quantified in DCs by subjecting cDNA to TaqMan PCR analysis using the GeneAmp 5700 Sequence Detection System (Applied Biosystems, Foster City, Calif.). Pre-developed sequence detection reagents (Applied Biosystems) specific for human SOCS1 and 18S rRNA, including forward and reverse primers as well as a fluorogenic TaqMan FAM-labeled hybridization probe, were supplied as mixtures and were used at 1 microliter/20 microliter PCR. Samples were run in duplicates. The level of SOCS1 expression in each sample was normalized to the level of 18S rRNA from the same sample using the comparative 2-delta delta CT method (Livak K J, Schmittgen T D. Analysis of relative gene expression data using real-time quantitative PCR and the 2(-Delta Delta C(T)) Method. Methods. 2001; 25:402-408).\nFinally, the induction of the suppressor of cytokine signaling (SOCS1) was evaluated."}, "[1]": {"test_system": "Naïve CD4+CD45RA+ T cells", "assay_type": "cell-based, human", "settings": "restimulated with TTp30 at day 7"}, "human DCs": {"test_system": "human DCs", "experiment": "Cytokine ELISA (IL-12p70, IL-6) of culture supernatants of human monocyte-derived DCs", "assay_type": "cell-based", "settings": "LPS and CD40L-stimulated DCs"}},
  "data": [
    {"molecule": "Lipopolysaccharide [LPS]", "values": [
      {"measurement": "SOCS1 induction in DCs", "setting": "human SOCS1", "value": "up-regulated"}
    ]},
    {"molecule": "monophosphoryl lipid A [MPL]", "values": [
      {"measurement": "IFN-gamma production in CD4+ T cells", "setting": "[1]", "value": "not induced"}
    ]},
    {"molecule": "CD40L: CD40 ligand, a TNF family member that binds to the CD40 receptor (protein) MIETYNQTSPRSAATGLPISMKIFMYLLTVFLITQMIGSALFAVYLHRRLDKIEDERNLHEDFVFMKTIQRCNTGERSLSLLNCEEIKSQFEGFVKDIMLNKEETKKENSFEMQKGDQNPQIAAHVISEASSKTTSVLQWAEKGYYTMSNNLVTLENGKQLTVKRQGLYYIYAQVTFCSNREASSQAPFIASLCLKSPGRFERILLRAANTHSSAKPCGQQSIHLGGVFELQPGASVFVNVTDPSQVSHGTGFTSFGLLKL", "values": [
      {"measurement": "IL-12p70 expression after removal of LPS stimulation", "setting": "human DCs", "value": "ceased when LPS stimulation was removed"}
    ]}
  ]
}
